These results are taken from patent US20230131899A1, “INHIBITORS OF MICROBIALLY INDUCED AMYLOID” (Axial Therapeutics, Inc., priority 2020, published 2023).

The test system of assay [1] is CsgA gene expression (csgBAC promoter-GFP reporter) in E. coli UTI89. The assay is described as follows: In vitro live cell fluorescent reporter assay of CsgA transcription (Reporter Assay). Type of assay: cell-based. The following applies: Escherichia coli; for IC50: read-out: Reporter Assay Abs IC50 (μM), median Abs IC50 in the CsgA reporter assay, N/A = maximum expression reduction is <50% of control; for pIC50: read-out: Reporter Assay Abs IC50, activity range, class symbol. The procedure, abridged: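 Chromosomal single-copy csgBAC promoter–GFP reporter in E. coli UTI89, started at OD600 0.003 in YESCA broth with compound (0.14–100 μM, 1% DMSO), 20 h at 27 °C. GFP (ex 485/em 525 nm) background-subtracted and normalized to vehicle; IC50 and X[50] from curve fits. OD600 tracked growth effects.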
On the technique in general: A reporter such as luciferase makes a cellular process visible.

A further assay deals with T1, E. coli CsgA (Escherichia coli, UniProt P28307).
T1 construct: made in house; host or cells: E. coli NEB 3016 slyD::kan, pET11d
T1 sequence (P28307 23-151): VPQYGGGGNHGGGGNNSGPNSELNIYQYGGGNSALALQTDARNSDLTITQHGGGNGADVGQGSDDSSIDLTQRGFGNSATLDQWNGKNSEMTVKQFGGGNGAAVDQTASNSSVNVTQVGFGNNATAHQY
The experiment in a line: In vitro ThioflavinT assay of CsgA aggregation (CsgA ThT Assay). The format is biochemical. The following applies: CsgA 2 μM, white plates; for remaining activity at 25 µM: compound 25 μM; for remaining activity at 100 µM: compound 100 μM. The essentials: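 Purified C-terminal His-tagged CsgA, monomerised by desalting and 30-kDa filtration, at 2-20 μM with 20-40 μM ThT in 50 mM potassium phosphate pH 7.3, 1% DMSO, compounds 3.125-200 uM; room temperature, fluorescence (ex 438/em 495 nm) read every 15 min. Background-subtracted signal expressed as percent inhibition versus vehicle at 6-6.5 or 8-9 h, or as percent control AUC.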

Setting [2] is: read-out: CsgA ThT Assay (2 μM CsgA) % Control Bmax 25 μM, activity range, class symbol.
The mark [3] stands for this setting: read-out: CsgA ThT Assay (2 μM CsgA) % Control Bmax 25 μM, mean Bmax as percentage of DMSO control.
The mark [4] stands for this setting: read-out: CsgA ThT Assay (2 μM CsgA) % Control Bmax 100 μM, activity range, class symbol.
Where [5] appears, read: read-out: CsgA ThT Assay (2 μM CsgA) % Control Bmax 100 μM, mean Bmax as percentage of DMSO control.

pIC50: −log10 of the molar value. Where two headings read alike, the source gives them in different places. Some results are limits rather than exact numbers.

On to `O=C(O)C1CNS(=O)(=O)c2c(-c3cccc(C(F)(F)F)c3)c(C(F)(F)c3cccc4ccccc34)cc(=O)n21` (stereo not shown) [Compound 137, 8-(difluoro(naphthalen-1-yl)methyl)-6-oxo-9-(3-(trifluoromethyl)phenyl)-3,4-dihydro-2H,6H-pyrido[1,2-e][1,2,5]thiadiazine-4-carboxylic acid 1,1-dioxide], for which the IC50 (usually the concentration needed to halve the response being measured) in assay [1] was 2.2 µM. The pIC50 – broadly, the IC50 on a negative log10 scale, so that one unit is a factor of ten – in assay [1] is 5.35 to 5.89. The remaining activity at 25 µM is above 60% at E. coli CsgA (setting [2]) and 81% at E. coli CsgA (setting [3]). The remaining activity at 100 µM on E. coli CsgA (setting [4]) is 31 to 60%; at E. coli CsgA (setting [5]), 50%.
Take `CCCN1CC(C(=O)O)n2c(c(-c3cccc(C(F)(F)F)c3)c(Cc3cccc4ccccc34)c(CC(C)C)c2=O)S1(=O)=O` (stereo not shown) [Compound 139, 7-isobutyl-8-(naphthalen-1-ylmethyl)-6-oxo-2-propyl-9-(3-(trifluoromethyl)phenyl)-3,4-dihydro-2H,6H-pyrido[1,2-e][1,2,5]thiadiazine-4-carboxylic acid 1,1-dioxide]: the IC50 in assay [1] came out at 2.5 µM. Besides, the negative-log IC50 (pIC50) in assay [1] is 5.35 to 5.89. The figures for the remaining activity at 25 µM on E. coli CsgA (setting [2]) and at E. coli CsgA (setting [3]) were 31 to 60% and 51%, respectively. Further, the values for the remaining activity at 100 µM at E. coli CsgA (setting [4]) and on E. coli CsgA (setting [5]) were 31 to 60% and 35%, respectively.
`CC(C)CN1CC(C(=O)O)n2c(c(-c3cccc(C(F)(F)F)c3)c(Cc3cccc4ccccc34)c(NC3CCCC3)c2=O)S1(=O)=O` (stereo not shown) [Compound 145, 7-(cyclopentylamino)-2-isobutyl-8-(naphthalen-1-ylmethyl)-6-oxo-9-(3-(trifluoromethyl)phenyl)-3,4-dihydro-2H,6H-pyrido[1,2-e][1,2,5]thiadiazine-4-carboxylic acid 1,1-dioxide]: in assay [1], the IC50 was 2 µM. Moreover, the negative-log IC50 (pIC50) in assay [1] was 5.35 to 5.89. Also, the values for the remaining activity at 25 µM on E. coli CsgA (setting [2]) and at E. coli CsgA (setting [3]) were above 60% and 76%, respectively. For the same compound, the remaining activity at 100 µM is 31 to 60% on E. coli CsgA (setting [4]) and 39% at E. coli CsgA (setting [5]).
Take `O=C(O)C1CN(C2CCCC2)S(=O)(=O)c2c(-c3cccc(C(F)(F)F)c3)c(Cc3cccc4ccccc34)c(NC3CCCC3)c(=O)n21` (stereo not shown) [Compound 150, 2-cyclopentyl-7-(cyclopentylamino)-8-(naphthalen-1-ylmethyl)-6-oxo-9-(3-(trifluoromethyl)phenyl)-3,4-dihydro-2H,6H-pyrido[1,2-e][1,2,5]thiadiazine-4-carboxylic acid 1,1-dioxide]: the IC50 in assay [1] amounted to 4.2 µM. The pIC50 in assay [1] is 5.35 to 5.89. Also, the remaining activity at 25 µM on E. coli CsgA (setting [2]) is above 60%; at E. coli CsgA (setting [3]), 78%. For the same compound, the remaining activity at 100 µM at E. coli CsgA (setting [4]) is above 60%; on E. coli CsgA (setting [5]), 199%.
Regarding `O=C(O)C1CN(Cc2ccccn2)c2c(-c3cccc(C(F)(F)F)c3)c(Cc3cccc4ccccc34)c(Cl)c(=O)n21` (stereo not shown) [Compound 166, 6-chloro-7-(naphthalen-1-ylmethyl)-5-oxo-1-(pyridin-2-ylmethyl)-8-(3-(trifluoromethyl)phenyl)-1,2,3,5-tetrahydroimidazo[1,2-a]pyridine-3-carboxylic acid], the IC50 in assay [1] worked out at 2.5 µM. For the same compound, the pIC50 in assay [1] is 5.35 to 5.89. Further, the remaining activity at 25 µM is above 60% at E. coli CsgA (setting [2]) and 72% on E. coli CsgA (setting [3]). Besides, the remaining activity at 100 µM at E. coli CsgA (setting [4]) is 31 to 60%; at E. coli CsgA (setting [5]), 40%.
As to `NC(=O)c1c(Cc2cccc3ccccc23)c(-c2cccc(C(F)(F)F)c2)c2n(c1=O)C(C(=O)O)CN(CCCCO)S2(=O)=O` (stereo not shown) [Compound 183, 7-carbamoyl-2-(4-hydroxybutyl)-8-(naphthalen-1-ylmethyl)-6-oxo-9-(3-(trifluoromethyl)phenyl)-3,4-dihydro-2H,6H-pyrido[1,2-e][1,2,5]thiadiazine-4-carboxylic acid 1,1-dioxide], in assay [1], the IC50 worked out at 0.8 µM. Besides, the pIC50 in assay [1] is above 5.89. Besides, the values for the remaining activity at 25 µM at E. coli CsgA (setting [2]) and at E. coli CsgA (setting [3]) were 31 to 60% and 32%, respectively. The remaining activity at 100 µM on E. coli CsgA (setting [4]) was 11 to 31%; on E. coli CsgA (setting [5]) it was 26%.
For `N#Cc1c(Cc2cccc3ccccc23)c(-c2cccc(C(F)(F)F)c2)c2n(c1=O)C(C(=O)O)CN2Cc1ccccc1` (stereo not shown) [Compound 185, 1-benzyl-6-cyano-7-(naphthalen-1-ylmethyl)-5-oxo-8-(3-(trifluoromethyl)phenyl)-1,2,3,5-tetrahydroimidazo[1,2-a]pyridine-3-carboxylic acid], the IC50 in assay [1] was 1.8 µM. Besides, the pIC50 in assay [1] was 5.35 to 5.89. Moreover, the remaining activity at 25 µM on E. coli CsgA (setting [2]) is above 60%; on E. coli CsgA (setting [3]) it was 69%. Further, the remaining activity at 100 µM was above 60% on E. coli CsgA (setting [4]) and 91% at E. coli CsgA (setting [5]).
In the case of `CN1CC(C(=O)O)n2c(c(-c3cccc(C(F)(F)F)c3)c(Cc3cccc4ccccc34)c(C(=O)N3CCCC3)c2=O)S1(=O)=O` (stereo not shown) [Compound 186, 2-methyl-8-(naphthalen-1-ylmethyl)-6-oxo-7-(pyrrolidine-1-carbonyl)-9-(3-(trifluoromethyl)phenyl)-3,4-dihydro-2H,6H-pyrido[1,2-e] [1,2,5] thiadiazine-4-carboxylic acid 1,1-dioxide], the IC50 in assay [1] was determined as 4.7 µM. Moreover, the pIC50 in assay [1] is 5.00 to 5.34. Moreover, the remaining activity at 25 µM at E. coli CsgA (setting [2]) was above 60%; on E. coli CsgA (setting [3]), 117%. For the same compound, the remaining activity at 100 µM was above 60% at E. coli CsgA (setting [4]) and 72% at E. coli CsgA (setting [5]).
As to `O=C(O)C1CN(Cc2ccccc2)c2c(-c3ccc(Br)cc3)c(Cc3cccc4ccccc34)c(Cl)c(=O)n21` (stereo not shown) [Compound 201, 1-benzyl-8-(4-bromophenyl)-6-chloro-7-(naphthalen-1-ylmethyl)-5-oxo-1,2,3,5-tetrahydroimidazo[1,2-a]pyridine-3-carboxylic acid], in assay [1], the IC50 worked out at 1.8 µM. For the same compound, the pIC50 in assay [1] was 5.35 to 5.89. Also, the remaining activity at 25 µM on E. coli CsgA (setting [2]) was above 60%; on E. coli CsgA (setting [3]), 70%. Moreover, the results for the remaining activity at 100 µM at E. coli CsgA (setting [4]) and on E. coli CsgA (setting [5]) were 31 to 60% and 35%, respectively.
For the compound `NC(=O)c1c(Cc2cccc3ccccc23)c(-c2cccc(C(F)(F)F)c2)c2n(c1=O)C(C(=O)O)CN2Cc1ccccc1` (stereo not shown) [Compound 203, 1-benzyl-6-carbamoyl-7-(naphthalen-1-ylmethyl)-5-oxo-8-(3-(trifluoromethyl)phenyl)-1,2,3,5-tetrahydroimidazo[1,2-a]pyridine-3-carboxylic acid], the half-maximal inhibitory concentration (IC50) in assay [1] came to 1.1 µM. The negative-log IC50 (pIC50) in assay [1] was above 5.89. The remaining activity at 25 µM on E. coli CsgA (setting [2]) was above 60%; at E. coli CsgA (setting [3]), 62%. Moreover, the values for the remaining activity at 100 µM on E. coli CsgA (setting [4]) and at E. coli CsgA (setting [5]) were above 60% and 64%, respectively.
With `CN(C)Cc1c(Cc2cccc3ccccc23)c(-c2cccc(C(F)(F)F)c2)c2n(c1=O)C(C(=O)O)CN2Cc1ccccc1` (stereo not shown) [Compound 204, 1-benzyl-6-((dimethylamino)methyl)-7-(naphthalen-1-ylmethyl)-5-oxo-8-(3-(trifluoromethyl)phenyl)-1,2,3,5-tetrahydroimidazo[1,2-a]pyridine-3-carboxylic acid], in assay [1], the IC50 came to 1.9 µM and the negative-log IC50 (pIC50) is 5.35 to 5.89. Besides, at E. coli CsgA (setting [4]), the remaining activity at 100 µM is above 60%. The remaining activity at 100 µM on E. coli CsgA (setting [5]) came to 71%.
With `O=C(O)C1CN(Cc2ccccc2)c2c(-c3cccc(C(F)(F)F)c3)c(Cc3cccc4ccncc34)c(Cl)c(=O)n21` (stereo not shown) [Compound 205, 1-benzyl-6-chloro-7-(isoquinolin-8-ylmethyl)-5-oxo-8-(3-(trifluoromethyl)phenyl)-1,2,3,5-tetrahydroimidazo[1,2-a]pyridine-3-carboxylic acid], the IC50 in assay [1] is 22.4 µM. Moreover, the pIC50 in assay [1] was below 5.00. Further, the remaining activity at 25 µM on E. coli CsgA (setting [2]) was above 60%; at E. coli CsgA (setting [3]), 69%. The remaining activity at 100 µM on E. coli CsgA (setting [4]) is 31 to 60%; at E. coli CsgA (setting [5]) it was 44%.
Take `O=C(O)C1CN(Cc2ccccc2)c2c(-c3cccc(C(F)(F)F)c3)c(Cc3ccnc4ccccc34)c(Cl)c(=O)n21` (stereo not shown) [Compound 206, 1-benzyl-6-chloro-5-oxo-7-(quinolin-4-ylmethyl)-8-(3-(trifluoromethyl)phenyl)-1,2,3,5-tetrahydroimidazo[1,2-a]pyridine-3-carboxylic acid]: the IC50 in assay [1] is 13.2 µM. The pIC50 in assay [1] is below 5.00. In addition, the remaining activity at 25 µM on E. coli CsgA (setting [2]) was above 60%; on E. coli CsgA (setting [3]), 64%. In addition, the remaining activity at 100 µM at E. coli CsgA (setting [4]) was 31 to 60%; on E. coli CsgA (setting [5]), 54%.
Consider `CC(C)(C)c1ccc(CN2CC(C(=O)O)n3c2c(-c2cccc(C(F)(F)F)c2)c(Cc2cccc4ccccc24)c(Cl)c3=O)cc1` (stereo not shown) [Compound 208, 1-(4-(tert-butyl)benzyl)-6-chloro-7-(naphthalen-1-ylmethyl)-5-oxo-8-(3-(trifluoromethyl)phenyl)-1,2,3,5-tetrahydroimidazo[1,2-a]pyridine-3-carboxylic acid], for which the IC50 in assay [1] amounted to 1 µM. Further, the pIC50 in assay [1] was above 5.89. Further, the values for the remaining activity at 25 µM on E. coli CsgA (setting [2]) and at E. coli CsgA (setting [3]) were 31 to 60% and 46%, respectively. For the same compound, the remaining activity at 100 µM at E. coli CsgA (setting [4]) is 11 to 31%; on E. coli CsgA (setting [5]) it was 25%.
